The target in assay [1] is human Na,K-ATPase α1β1FXYD1 (Homo sapiens (Human), UniProt P05023). Format: biochemical. To be noted: for Ki: read-out: Ki in nM ± SEM α1β1.
Assay [2] concerns the target human Na,K-ATPase α2β1FXYD1 (Homo sapiens, UniProt P50993). The assay is classed as biochemical. To be noted: read-out: Ki in nM ± SEM α2β1.
For assay [3], the system named is human Na,K-ATPase α2β1FXYD1. The assay is classed as biochemical.
In assay [4] the target is human Na,K-ATPase α2β2FXYD1 (Homo sapiens (Human), UniProt P50993). The assay is classed as biochemical. The note with it: for Ki: read-out: Ki in nM ± SEM α2β2.
The target of assay [5] is human Na,K-ATPase α2β3FXYD1 (Homo sapiens (Human), UniProt P50993+P54709). Kind of assay: biochemical. Format: biochemical.
Assay [6] relates to Na,K-ATPase in bovine ciliary NPE cells. Kind of assay: biochemical. To be noted: 1 site model; read-out: Ki, nM ± SEM.
The subject of assay [7] is 4AP-induced IOP in rabbits. The assay is classed as in vivo, rabbit.
In a further assay the test system is basal IOP in rabbits. Kind of assay: Basal IOP in rabbits, topical administration. Format: in vivo, rabbit. To be noted: for effect on lowering basal IOP: one drop of 1 mM solution, other eye PBS.
Assay [8] concerns Na,K-ATPase isoforms α1, α2, α3. The note with it: cited from earlier work.

Each structure is given as a SMILES string. “Also recorded” adds a separate entry of the source. Like-named read-outs stand apart in the source and are kept apart here.

Broadly, the Ki is a measure of affinity in units of concentration, obtained from inhibition or displacement. As for `CC1CN(CCC2CC2)CCC(O[C@@H]2[C@H](C)O[C@@H](O[C@@H]3[C@H](C)O[C@@H](O[C@H]4CC[C@@]5(C)C(CCC6C5C[C@H](O)[C@]5(C)[C@@H](C7=CC(=O)OC7)CC[C@]65O)C4)C[C@@H]3O)C[C@@H]2O)O1` (stereo partly drawn) [DEcP], the Ki amounted to 86.1 ± 7 nM in [1], 14.3 ± 2 nM in [2], 12.1 ± 1.9 nM in [4] and 7.2 ± 1 nM in assay [5] (read-out: Ki in nM ± SEM α2β3). Also, the “Selectivity Ki ratio α1β1/α2β1” value in assay [3] was 6.02. Moreover, the “Selectivity Ki ratio α1β1/α2β2” value in [4] stood at 7.1. Further, the “Selectivity Ki ratio α1β1/α2β3” value in assay [5] was found to be 12.02. Moreover, the “selectivity for α2β3 over α1β1 (Ki α1β1:α2β3 ratio)” value (“selectivity … (Ki α1β1:α2β3 ratio)” for short) in assay [5] was 10-12 fold.
In the case of `CCN1CCC(O[C@@H]2[C@H](C)O[C@@H](O[C@@H]3[C@H](C)O[C@@H](O[C@H]4CC[C@@]5(C)C(CCC6C5C[C@H](O)[C@]5(C)[C@@H](C7=CC(=O)OC7)CC[C@]65O)C4)C[C@@H]3O)C[C@@H]2O)OC(C)C1` (stereo partly drawn) [DEt], the Ki came out at 138 ± 12.6 nM in assay [1], 23.2 ± 0.9 nM in [2], 16.4 ± 1.6 nM in assay [4] and 14.4 ± 1.27 nM in [5] (read-out: Ki in nM ± SEM α2β3). Also, in [3], the “Selectivity Ki ratio α1β1/α2β1” value stood at 5.9. Moreover, in assay [4], the “Selectivity Ki ratio α1β1/α2β2” value was determined as 8.3. Besides, in assay [5], the “Selectivity Ki ratio α1β1/α2β3” value amounted to 9.5.
For `CC1CN(CC2CC(C)(C)C2)CCC(O[C@@H]2[C@H](C)O[C@@H](O[C@@H]3[C@H](C)O[C@@H](O[C@H]4CC[C@@]5(C)C(CCC6C5C[C@H](O)[C@]5(C)[C@@H](C7=CC(=O)OC7)CC[C@]65O)C4)C[C@@H]3O)C[C@@H]2O)O1` (stereo partly drawn) [DMDMcB, 4-((3S,5R,8R,9S10S,12R,13S,14S,17R)-3-(((2S,4S,5R,6R)-5-(((2S,4S,5S,6R)-5-((4-((3,3-dimethylcyclobutyl)methyl)-2-methyl-1,4-oxazepan-7-yl)oxy)-4-hydroxy-6-methyltetrahydro-2H-pyran-2-yl)oxy)-4-hydroxy-6-methyltetrahydro-2H-pyran-2-yl)oxy)-12,14-dihydroxy-10,13-dimethylhexadecahydro-1H-cyclopenta[a]phenanthren-17-yl)furan-2(5H)-one], the Ki was 31.6 ± 0.5 nM in assay [1], 8.6 ± 1.4 nM in assay [2], 5.1 ± 0.5 nM in assay [4] and 3.9 ± 0.7 nM in [5] (read-out: Ki in nM ± SEM α2β3). Further, the “Selectivity Ki ratio α1β1/α2β1” value in [3] is on record as 3.69. In addition, in assay [4], the “Selectivity Ki ratio α1β1/α2β2” value stood at 6.16. In assay [5], the “Selectivity Ki ratio α1β1/α2β3” value stood at 8.19. Also, the “selectivity … (Ki α1β1:α2β3 ratio)” value in assay [5] is reported as 10-12 fold.
Turning to `CC1CN(CC2CC2)CCC(O[C@@H]2[C@H](C)O[C@@H](O[C@@H]3[C@H](C)O[C@@H](O[C@H]4CC[C@@]5(C)C(CCC6C5C[C@H](O)[C@]5(C)[C@@H](C7=CC(=O)OC7)CC[C@]65O)C4)C[C@@H]3O)C[C@@H]2O)O1` (stereo partly drawn) [DMcP], in assay [1], the “Ki for α1β1 lower than for digoxin” value was 2-3 fold. Moreover, the Ki is 95.8 ± 13.7 nM in [1]; 18.3 ± 1.6 nM in assay [2]; 8 ± 0.8 nM in assay [4]; approximately 4 nM in assay [5]; 4.3 ± 0.6 nM in assay [5] (read-out: Ki in nM ± SEM α2β3); 7.9 ± 2.2 nM in assay [6]. The “Selectivity Ki ratio α1β1/α2β1” value in [3] was determined as 5.2. In addition, the “Selectivity Ki ratio α1β1/α2β2” value in [4] amounted to 12. The “Ki for α2β3 lower than for digoxin” value in [5] is reported as “about 10 fold”. Further, the “Selectivity Ki ratio α1β1/α2β3” value in [5] was 22.2. The “selectivity … (Ki α1β1:α2β3 ratio)” value in [5] turned out to be 22 fold. Besides, in assay [7] (one drop topically prior to 4AP), the “concentration that prevents the 4AP-induced rise in IOP” value came out at 0.01 mM. In the assay with basal IOP in rabbits, the “effect on lowering basal IOP” value is reported as “notable effect”. Besides, the “reduction of basal IOP” value with basal IOP in rabbits (rabbit with a basal IOP of 17 mm Hg) is “about 4 mm Hg”; in the assay with basal IOP in rabbits (topical, test period of 4-5 hours), 20-25%.
Regarding `CC1CN(C)CCC(O[C@@H]2[C@H](C)O[C@@H](O[C@@H]3[C@H](C)O[C@@H](O[C@H]4CC[C@@]5(C)C(CCC6C5C[C@H](O)[C@]5(C)[C@@H](C7=CC(=O)OC7)CC[C@]65O)C4)C[C@@H]3O)C[C@@H]2O)O1` (stereo partly drawn) [DMe], the inhibition constant (Ki) in [1] was 103 ± 5.6 nM; in assay [2], 15.3 ± 1.2 nM; in assay [4], 20.4 ± 1.8 nM; in [5] (read-out: Ki in nM ± SEM α2β3), 10.8 ± 0.6 nM; in assay [6] it was 15.6 ± 1.3 nM. For the same molecule, the “Selectivity Ki ratio α1β1/α2β1” value in assay [3] is given as 6.7. In assay [4], the “Selectivity Ki ratio α1β1/α2β2” value came out at 5.1. Further, the “Selectivity Ki ratio α1β1/α2β3” value in [5] was found to be 9.5.
In the case of `CCCN1CCC(O[C@@H]2[C@H](C)O[C@@H](O[C@@H]3[C@H](C)O[C@@H](O[C@H]4CC[C@@]5(C)C(CCC6C5C[C@H](O)[C@]5(C)[C@@H](C7=CC(=O)OC7)CC[C@]65O)C4)C[C@@H]3O)C[C@@H]2O)OC(C)C1` (stereo partly drawn) [DP], the Ki in assay [1] worked out at 87.7 ± 7.9 nM; in assay [2] it was 18.3 ± 1.68 nM; in assay [4] it was 10.5 ± 1.8 nM; in [5] (read-out: Ki in nM ± SEM α2β3), 9.8 ± 1.1 nM. In addition, the “Selectivity Ki ratio α1β1/α2β1” value in [3] was 4.8. Besides, in [4], the “Selectivity Ki ratio α1β1/α2β2” value is recorded as 8.3. Also, the “Selectivity Ki ratio α1β1/α2β3” value in [5] came to 8.8.
`CC1CN(C[Si](C)(C)C)CCC(OC2C(O)CC(OC3C(O)CC(OC4CCC5(C)C(CCC6C5CC(O)C5(C)C(C7=CC(=O)OC7)CCC65O)C4)OC3C)OC2C)O1` (stereo not drawn) [DTMS]: the Ki came out at 72.6 ± 17.6 nM in [1], 24.3 ± 4 nM in assay [2], 14.3 ± 1.3 nM in [4] and 11.1 ± 1.6 nM in assay [5] (read-out: Ki in nM ± SEM α2β3). Also, the “Selectivity Ki ratio α1β1/α2β1” value in [3] was found to be 3. In addition, the “Selectivity Ki ratio α1β1/α2β2” value in [4] is given as 5.1. The “Selectivity Ki ratio α1β1/α2β3” value in [5] was found to be 6.5.
For `CC1CN(C2CC2)CCC(O[C@@H]2[C@H](C)O[C@@H](O[C@@H]3[C@H](C)O[C@@H](O[C@H]4CC[C@@]5(C)C(CCC6C5C[C@H](O)[C@]5(C)[C@@H](C7=CC(=O)OC7)CC[C@]65O)C4)C[C@@H]3O)C[C@@H]2O)O1` (stereo partly drawn) [DcP, 4-((3S,5R,8R,9S,10S,12R,13S,14S,17R)-3-(((2R,4S,5S,6R)-5-(((2S,4S,5S,6R)-5((4-cyclopropyl-2-methyl-1,4-oxazepan-7-yl)oxy)-4-hydroxy-6-methyltetrahydro-2H-pyran-2-yl)oxy)-4-hydroxy-6-methyltetrahydro-2H-pyran-2-yl)oxy)-12,14-dihydroxy-10,13-dimethythylhexadecahydro-1H-cyclopenta[a]phenanthren-17-yl)furan-2(5H)-one], the Ki in [1] came out at 109 ± 6.2 nM; in assay [2], 14.6 ± 11.6 nM; in assay [4], 13 ± 1.3 nM; in [5] (read-out: Ki in nM ± SEM α2β3), 8.1 ± 1.36 nM. In addition, in [3], the “Selectivity Ki ratio α1β1/α2β1” value is reported as 7.5. The “Selectivity Ki ratio α1β1/α2β2” value in [4] worked out at 8.5. Moreover, the “Selectivity Ki ratio α1β1/α2β3” value in assay [5] is 13.4.
On to `CC(C)CN1CCC(O[C@@H]2[C@H](C)O[C@@H](O[C@@H]3[C@H](C)O[C@@H](O[C@H]4CC[C@@]5(C)C(CCC6C5C[C@H](O)[C@]5(C)[C@@H](C7=CC(=O)OC7)CC[C@]65O)C4)C[C@@H]3O)C[C@@H]2O)OC(C)C1` (stereo partly drawn) [DiB], for which the inhibition constant (Ki) in assay [1] came out at 92 nM; in assay [2], 20.6 ± 1.4 nM. Besides, in [7] (10 μM), the “effect on 4AP-induced IOP” value was “still effective”. The “effect on lowering basal IOP” value with basal IOP in rabbits is “lack of effect; also recorded: neither digoxin nor DiB had a significant effect”.
As to `CC1CN(C(C)C)CCC(O[C@@H]2[C@H](C)O[C@@H](O[C@@H]3[C@H](C)O[C@@H](O[C@H]4CC[C@@]5(C)C(CCC6C5C[C@H](O)[C@]5(C)[C@@H](C7=CC(=O)OC7)CC[C@]65O)C4)C[C@@H]3O)C[C@@H]2O)O1` (stereo partly drawn) [DiP], the Ki in assay [1] was determined as 149 nM; in assay [2], 28.9 ± 1.7 nM; in assay [4], 16.7 ± 1.9 nM; in assay [5] (read-out: Ki in nM ± SEM α2β3) it was 10.3 ± 1.8 nM. Besides, the “Selectivity Ki ratio α1β1/α2β1” value in assay [3] came out at 5.1. Further, the “Selectivity Ki ratio α1β1/α2β2” value in assay [4] is 8.9. Also, the “Selectivity Ki ratio α1β1/α2β3” value in assay [5] worked out at 14.4.
Consider `C[C@H]1O[C@@H](O[C@H]2[C@@H](O)C[C@H](O[C@H]3[C@@H](O)C[C@H](O[C@H]4CC[C@@]5(C)[C@H](CC[C@@H]6[C@@H]5CC[C@]5(C)[C@@H](C7=CC(=O)OC7)CC[C@]65O)C4)O[C@@H]3C)O[C@@H]2C)C[C@H](O)[C@@H]1O` [Digitoxin, digitoxin], for which the “lower Ki values for α2 compared to α1” value in [8] is reported as 3-4 fold.
On to `C[C@H]1O[C@@H](O[C@H]2[C@@H](O)C[C@H](O[C@H]3[C@@H](O)C[C@H](O[C@H]4CC[C@@]5(C)[C@H](CC[C@@H]6[C@@H]5C[C@@H](O)[C@]5(C)[C@@H](C7=CC(=O)OC7)CC[C@]65O)C4)O[C@@H]3C)O[C@@H]2C)C[C@H](O)[C@@H]1O` [Digoxin, digoxin, reference compound], for which the Ki in [6] was 91.7 ± 10.2 nM. The “effect on lowering basal IOP” value with basal IOP in rabbits is “lack of effect; also recorded: neither digoxin nor DiB had a significant effect”. For the same molecule, the “lower Ki values for α2 compared to α1” value in [8] is 3-4 fold.
Consider `CC1CN(C(C)(C)C)CCC(O[C@@H]2[C@H](C)O[C@@H](O[C@@H]3[C@H](C)O[C@@H](O[C@H]4CC[C@@]5(C)C(CCC6C5C[C@H](O)[C@]5(C)[C@@H](C7=CC(=O)OC7)CC[C@]65O)C4)C[C@@H]3O)C[C@@H]2O)O1` (stereo partly drawn) [DtB], for which the Ki in [1] was 135 nM; in assay [2], 21.6 ± 5.6 nM; in assay [4] it was 18.4 ± 1.1 nM; in [5] (read-out: Ki in nM ± SEM α2β3), 16.3 ± 0.28 nM. In addition, the “Selectivity Ki ratio α1β1/α2β1” value in assay [3] is listed as 6.2. In addition, in [4], the “Selectivity Ki ratio α1β1/α2β2” value was determined as 7.3. Also, in assay [5], the “Selectivity Ki ratio α1β1/α2β3” value is on record as 8.2.

Values taken from patent US10668094B2, “Selective inhibitors of Alpha2-containing isoforms of Na,K-ATPase and use thereof for reduction of intraocular pressure” (Yeda Research and Development Co. Ltd., priority 2015, dated 2020).
